Data: US9580444B2, “Polycyclic pyrazolinone derivative and herbicide comprising same as effective component thereof” (priority 2013, dated 2017)

Legend:
Format in all cases: in vivo
corn [1] = test: Test Example-4: phytotoxicity by a foliage treatment after weeds are generated under upland field conditions; conditions: 500 g a.i/ha, foliage treatment after emergence, about 14 days after treatment, score 0-5
Procedure, shortened: (§1)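 Weed seeds were sown in upland soil, covered with about 0.5 cm soil and grown 14 days with watering. Diluted wettable powder or emulsifiable concentrate was then sprayed uniformly on foliage at a set dosage in 4000 L water/ha. Weed control and corn injury were scored 0–5 about 14 days later.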

corn [2] = test: Test Example-5: phytotoxicity by a foliage treatment after weeds are generated under upland field conditions; conditions: 12.5 g a.i/ha, foliage treatment after emergence, about 14 days after treatment, score 0-5
Description: (§2) Using the formulation prepared according to the methods described above, the herbicidal effect of the bicyclic pyrazolinone derivative of the invention according to the methods shown in Test Examples below was examined. The herbicidal effect with respect to the test weeds or the phytotoxicity with respect to the test crops was examined according to the following criteria, and evaluated in six stage scores of 0 to 5. A vat having an area of 81 cm^2 and a depth of 3.5 cm was filled with upland soil, then, seeds of Ipomoea purpurea (tall morning glory), Amaranthus viridis (green amaranthus), Abutilon theophrasti (velvetleaf), Chenopodium album (common lambsquarters), and corn were seeded thereto, and the seeds were covered with soil of about 0.5 cm. While watering was suitably performed on there, the seeds were grown for 14 days. A wettable powder or an emulsifiable concentrate of the compound of the present invention prepared according to Formulation Example was diluted, and a spray treatment was uniformly performed on the foliage portion of the plant so as to be a predetermined dosage in the amount of water of 4000 L per hectare. The herbicidal effect with respect to the test weeds and the phytotoxicity with respect to corn about 14 days after the treatment were evaluated according to the evaluation criteria in six stages of 0 to 5 described above.

corn [3] = test: Test Example-3: phytotoxicity by a treatment before weeds are generated under upland field conditions; conditions: 50 g a.i/ha; upland soil treatment before emergence; about 21 days after treatment; score 0-5
Description: as §2, with “Next day, a” for “While watering was suitably performed on there, the seeds were grown for 14 days. A”, “covered oil” for “foliage portion of the plant”, “dosage.” for “dosage in the amount of water of 4000 L per hectare.”, “21” for “14”

[4] = system: Chenopodium album (common lambsquarters); test: Test Example-3: herbicidal effect by a treatment before weeds are generated under upland field conditions; conditions: 50 g a.i/ha; upland soil treatment before emergence; about 21 days after treatment; score 0-5
Description: as §2, with “Next day, a” for “While watering was suitably performed on there, the seeds were grown for 14 days. A”, “covered oil” for “foliage portion of the plant”, “dosage.” for “dosage in the amount of water of 4000 L per hectare.”, “21” for “14”

[5] = system: Ipomoea purpurea (tall morning glory); test: as above; conditions: 50 g a.i/ha; upland soil treatment before emergence; about 21 days after treatment; score 0-5
Description: as §2, with “Next day, a” for “While watering was suitably performed on there, the seeds were grown for 14 days. A”, “covered oil” for “foliage portion of the plant”, “dosage.” for “dosage in the amount of water of 4000 L per hectare.”, “21” for “14”

[6] = system: Abutilon theophrasti (velvetleaf); test: as above; conditions: 50 g a.i/ha; upland soil treatment before emergence; about 21 days after treatment; score 0-5
Description: as §2, with “Next day, a” for “While watering was suitably performed on there, the seeds were grown for 14 days. A”, “covered oil” for “foliage portion of the plant”, “dosage.” for “dosage in the amount of water of 4000 L per hectare.”, “21” for “14”

[7] = system: Amaranthus viridis (green amaranthus); test: as above; conditions: 50 g a.i/ha; upland soil treatment before emergence; about 21 days after treatment; score 0-5
Description: as §2, with “Next day, a” for “While watering was suitably performed on there, the seeds were grown for 14 days. A”, “covered oil” for “foliage portion of the plant”, “dosage.” for “dosage in the amount of water of 4000 L per hectare.”, “21” for “14”

[8] = system: Chenopodium album (common lambsquarters); test: Test Example-5: herbicidal effect by a foliage treatment after weeds are generated under upland field conditions; conditions: 12.5 g a.i/ha, foliage treatment after emergence, about 14 days after treatment, score 0-5
Description: as §2

[9] = system: Ipomoea purpurea (tall morning glory); test: as above; conditions: 12.5 g a.i/ha, foliage treatment after emergence, about 14 days after treatment, score 0-5
Description: as §2

[10] = system: Abutilon theophrasti (velvetleaf); test: as above; conditions: 12.5 g a.i/ha, foliage treatment after emergence, about 14 days after treatment, score 0-5
Description: as §2

[11] = system: Amaranthus viridis (green amaranthus); test: as above; conditions: 12.5 g a.i/ha, foliage treatment after emergence, about 14 days after treatment, score 0-5
Description: as §2

[12] = system: Chenopodium album (common lambsquarters); test: Test Example-4: herbicidal effect by a foliage treatment after weeds are generated under upland field conditions; conditions: 500 g a.i/ha, foliage treatment after emergence, about 14 days after treatment, score 0-5
Procedure, shortened: as §1

[13] = system: Abutilon theophrasti (velvetleaf); test: as above; conditions: 500 g a.i/ha, foliage treatment after emergence, about 14 days after treatment, score 0-5
Procedure, shortened: as §1

[14] = system: Amaranthus viridis (green amaranthus); test: as above; conditions: 500 g a.i/ha, foliage treatment after emergence, about 14 days after treatment, score 0-5
Procedure, shortened: as §1

corn [15] = test: Test Example-2: phytotoxicity by a soil treatment before weeds are generated under upland field conditions; conditions: application amount 500 g a.i/ha, soil spray treatment before weeds are generated, about 21 days after the treatment, score 0 to 5
Description: as §2, with “of” for “of Ipomoea purpurea (tall morning glory),”, “amaranthus),” for “amaranthus), Abutilon theophrasti (velvetleaf),”, “Next day, a” for “While watering was suitably performed on there, the seeds were grown for 14 days. A”, “covered oil” for “foliage portion of the plant”, “dosage.” for “dosage in the amount of water of 4000 L per hectare.”, “21” for “14”

[16] = system: Chenopodium album (common lambsquarters); test: Test Example-2: herbicidal effect by a soil treatment before weeds are generated under upland field conditions; conditions: application amount 500 g a.i/ha, soil spray treatment before weeds are generated, about 21 days after the treatment, score 0 to 5
Description: as §2, with “of” for “of Ipomoea purpurea (tall morning glory),”, “amaranthus),” for “amaranthus), Abutilon theophrasti (velvetleaf),”, “Next day, a” for “While watering was suitably performed on there, the seeds were grown for 14 days. A”, “covered oil” for “foliage portion of the plant”, “dosage.” for “dosage in the amount of water of 4000 L per hectare.”, “21” for “14”

[17] = system: Amaranthus viridis (green amaranthus); test: as above; conditions: application amount 500 g a.i/ha, soil spray treatment before weeds are generated, about 21 days after the treatment, score 0 to 5
Description: as §2, with “of” for “of Ipomoea purpurea (tall morning glory),”, “amaranthus),” for “amaranthus), Abutilon theophrasti (velvetleaf),”, “Next day, a” for “While watering was suitably performed on there, the seeds were grown for 14 days. A”, “covered oil” for “foliage portion of the plant”, “dosage.” for “dosage in the amount of water of 4000 L per hectare.”, “21” for “14”

[18] = system: Monochoria vaginalis (monochoria); test: Test Example-1: herbicidal effect by a treatment before weeds are generated under submerged conditions; conditions: 500 g a.i/ha, pre-emergence treatment, about 15 days after treatment, score 0-5
Procedure, shortened: (§3)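 Paddy soil in cups was puddled, seeded with the weeds and kept flooded; compound as wettable powder or emulsifiable concentrate was diluted and applied into the water on the seeding day at a set dosage. Effect was scored about 15 days later on a 0–5 scale.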

[19] = system: Scirpus juncoides (bulrush); test: as above; conditions: 500 g a.i/ha, pre-emergence treatment, about 15 days after treatment, score 0-5
Procedure, shortened: as §3

[20] = system: Cyperus difformis (smallflower umbrella plant); test: as above; conditions: 500 g a.i/ha, pre-emergence treatment, about 15 days after treatment, score 0-5
Procedure, shortened: as §3

[21] = system: Eleocharis acicularis (needle spikerush); test: as above; conditions: 500 g a.i/ha, pre-emergence treatment, about 15 days after treatment, score 0-5
Procedure, shortened: as §3

[22] = system: other annual broad leaf weeds (Lindernia procumbens, Rotala indica, Elatine triandra); test: as above; conditions: 500 g a.i/ha, pre-emergence treatment, about 15 days after treatment, score 0-5
Procedure, shortened: as §3

[23] = system: Echinochloa oryzicola (barnyard grass); test: as above; conditions: 500 g a.i/ha, pre-emergence treatment, about 15 days after treatment, score 0-5
Procedure, shortened: as §3

| Structure (SMILES) | Phytotoxicity Corn (corn [1]) | Herbicidal effect Chenopodium album [12] | Herbicidal effect Abutilon theophrast [13] | Herbicidal effect Amaranthus viridis [14] | Phytotoxicity Corn (corn [15]) | Herbicidal effect Chenopodium album [16] | Herbicidal effect Amaranthus viridis [17] | Herbicidal effect Monochoria vaginalis [18] | Herbicidal effect Scirpus juncoides [19] | Herbicidal effect Cyperus difformis [20] | Herbicidal effect Eleocharis acicularis [21] | Herbicidal effect Broadleaf weed [22] | Herbicidal effect Echinochloa oryzicola [23] | also measured |
| --- | --- | --- | --- | --- | --- | --- | --- | --- | --- | --- | --- | --- | --- | --- |
| COC(=O)C=C(COc1cc(-c2c(Cl)n3n(c2=O)CCOCC3)c(F)cc1Cl)OC (mixture of isomers) [Example 2-3] | 1 (Herbicidal effect/phytotoxicity was 10% to 30%) | 5 (Herbicidal effect/phytotoxicity was 90% or greater) | 5 (Herbicidal effect/phytotoxicity was 90% or greater) | 5 (Herbicidal effect/phytotoxicity was 90% or greater) |  |  |  |  |  |  |  |  |  | Phytotoxicity Corn (corn [2]): 0 (Herbicidal effect/phytotoxicity was 0% to 10%); Phytotoxicity Corn (corn [3]): 0 (Herbicidal effect/phytotoxicity was 0% to 10%); Herbicidal effect Chenopodium album [4]: 4 (Herbicidal effect/phytotoxicity was 70% to 90%); Herbicidal effect Ipomoea purpurea [5]: 2 (Herbicidal effect/phytotoxicity was 30% to 50%); Herbicidal effect Abutilon theophrast [6]: 5 (Herbicidal effect/phytotoxicity was 90% or greater); Herbicidal effect Amaranthus viridis [7]: 5 (Herbicidal effect/phytotoxicity was 90% or greater); Herbicidal effect Chenopodium album [8]: 5 (Herbicidal effect/phytotoxicity was 90% or greater); Herbicidal effect Ipomoea purpurea [9]: 5 (Herbicidal effect/phytotoxicity was 90% or greater); Herbicidal effect Abutilon theophrasti [10]: 5 (Herbicidal effect/phytotoxicity was 90% or greater); Herbicidal effect Amaranthus viridis [11]: 5 (Herbicidal effect/phytotoxicity was 90% or greater) |
| COc1cc(-c2c(Cl)n3n(c2=O)CCCC3)c(Cl)cc1Cl [Example 1-292] | 1 (Herbicidal effect/phytotoxicity was 10% to 30%) | 5 (Herbicidal effect/phytotoxicity was 90% or greater) | 5 (Herbicidal effect/phytotoxicity was 90% or greater) | 5 (Herbicidal effect/phytotoxicity was 90% or greater) | 2 (Herbicidal effect/phytotoxicity was 30% to 50%) | 5 (Herbicidal effect/phytotoxicity was 90% or greater) | 5 (Herbicidal effect/phytotoxicity was 90% or greater) | 5 (Herbicidal effect/phytotoxicity was 90% or greater) | 5 (Herbicidal effect/phytotoxicity was 90% or greater) | 5 (Herbicidal effect/phytotoxicity was 90% or greater) | 5 (Herbicidal effect/phytotoxicity was 90% or greater) | 5 (Herbicidal effect/phytotoxicity was 90% or greater) | 5 (Herbicidal effect/phytotoxicity was 90% or greater) |  |
| C#CCOc1cc(-c2c(F)n3n(c2=O)CCCC3)c(Cl)cc1Cl [Example 1-358] | 1 (Herbicidal effect/phytotoxicity was 10% to 30%) | 5 (Herbicidal effect/phytotoxicity was 90% or greater) | 5 (Herbicidal effect/phytotoxicity was 90% or greater) | 5 (Herbicidal effect/phytotoxicity was 90% or greater) | 0 (Herbicidal effect/phytotoxicity was 0% to 10%) | 5 (Herbicidal effect/phytotoxicity was 90% or greater) | 5 (Herbicidal effect/phytotoxicity was 90% or greater) | 5 (Herbicidal effect/phytotoxicity was 90% or greater) | 5 (Herbicidal effect/phytotoxicity was 90% or greater) | 5 (Herbicidal effect/phytotoxicity was 90% or greater) | 5 (Herbicidal effect/phytotoxicity was 90% or greater) | 5 (Herbicidal effect/phytotoxicity was 90% or greater) | 5 (Herbicidal effect/phytotoxicity was 90% or greater) |  |
| C#CC(C)Oc1cc(-c2c(Cl)n3n(c2=O)CCCC3)c(F)cc1Cl (stereo not drawn) [Example 1-243] | 1 (Herbicidal effect/phytotoxicity was 10% to 30%) | 5 (Herbicidal effect/phytotoxicity was 90% or greater) | 5 (Herbicidal effect/phytotoxicity was 90% or greater) | 5 (Herbicidal effect/phytotoxicity was 90% or greater) | 0 (Herbicidal effect/phytotoxicity was 0% to 10%) | 5 (Herbicidal effect/phytotoxicity was 90% or greater) | 5 (Herbicidal effect/phytotoxicity was 90% or greater) | 5 (Herbicidal effect/phytotoxicity was 90% or greater) | 5 (Herbicidal effect/phytotoxicity was 90% or greater) | 5 (Herbicidal effect/phytotoxicity was 90% or greater) | 5 (Herbicidal effect/phytotoxicity was 90% or greater) | 5 (Herbicidal effect/phytotoxicity was 90% or greater) | 5 (Herbicidal effect/phytotoxicity was 90% or greater) |  |
| C#CCOc1cc(-c2c(Cl)n3n(c2=O)CCCCC3)c(Cl)cc1Cl [Example 1-303] | 1 (Herbicidal effect/phytotoxicity was 10% to 30%) | 5 (Herbicidal effect/phytotoxicity was 90% or greater) | 5 (Herbicidal effect/phytotoxicity was 90% or greater) | 5 (Herbicidal effect/phytotoxicity was 90% or greater) | 0 (Herbicidal effect/phytotoxicity was 0% to 10%) | 5 (Herbicidal effect/phytotoxicity was 90% or greater) | 5 (Herbicidal effect/phytotoxicity was 90% or greater) | 5 (Herbicidal effect/phytotoxicity was 90% or greater) | 5 (Herbicidal effect/phytotoxicity was 90% or greater) | 5 (Herbicidal effect/phytotoxicity was 90% or greater) | 5 (Herbicidal effect/phytotoxicity was 90% or greater) | 5 (Herbicidal effect/phytotoxicity was 90% or greater) | 5 (Herbicidal effect/phytotoxicity was 90% or greater) |  |
